In paper PMC10850145, “Hormonal steroids induce multidrug resistance and stress response genes in Neisseria gonorrhoeae by binding to MtrR” (Nature Communications, 2024):
“And” between values parts separate entries of the source, which are not always exact repeats. Equal values may be shown once. Read-outs that look alike come from different tables or passages of the source.

Legend:
rpoH-lacZ expression = assay type: cell-based, Neisseria gonorrhoeae; conditions: for Miller units, single well: individual replicate
N. gonorrhoeae = tested on: N. gonorrhoeae; design: method as in PMID 816438; conditions: cited from earlier work
[1] = rpoH-lacZ, ΔmtrR + mtrR D171A in trans, 6.25 µM hormone, single replicate
[2] = rpoH-lacZ, ΔmtrR + mtrR D171A in trans, 12.5 µM hormone, single replicate
[3] = rpoH-lacZ, ΔmtrR + mtrR D171A in trans, 25 µM hormone, single replicate
[4] = rpoH-lacZ, ΔmtrR + mtrR D171A in trans, 50 µM hormone, single replicate
[5] = rpoH-lacZ, ΔmtrR + mtrR WT in trans, 25 µM hormone, single replicate

Compound: C[C@]12CC[C@H]3[C@@H](CCC4=CC(=O)CC[C@@]43C)[C@@H]1CC[C@@H]2O [Testosterone, testosterone]
- Miller units, single well (rpoH-lacZ expression; 25 µM hormone, plate columns 7-12 (second strain, not WT)): 168 Miller units and 179 Miller units and 147 Miller units
- Miller units, Mean (rpoH-lacZ expression; 25 µM hormone, plate columns 7-12 (second strain, not WT), mean of 4 wells): 170 Miller units
- Plate-6 (Testosterone) Miller units, Mean (rpoH-lacZ expression; 25 µM, plate column 5, mean of plate rows 5-8, right (rpoH) half of sheet): 63 Miller units
- Plate-6 (Testosterone) Miller units (rpoH-lacZ expression; 25 µM, plate column 5, plate rows 5-8, single wells, right (rpoH) half of sheet): 68 Miller units and 55 Miller units and 57 Miller units and 70 Miller units
- Plate-6 (Testosterone) Miller units, Mean (rpoH-lacZ expression; 25 µM, plate column 11, mean of plate rows 5-8, right (rpoH) half of sheet): 65 Miller units
- Plate-6 (Testosterone) Miller units (rpoH-lacZ expression; 25 µM, plate column 11, plate rows 5-8, single wells, right (rpoH) half of sheet): 64 Miller units and 60 Miller units and 68 Miller units and 67 Miller units
- Miller units, single well (rpoH-lacZ expression; 50 µM hormone, plate columns 1-6 (WT)): 140 Miller units and 146 Miller units and 175 Miller units
- Miller units, Mean (rpoH-lacZ expression; 50 µM hormone, plate columns 1-6 (WT), mean of 4 wells): 152 Miller units
- Miller units, Mean (rpoH-lacZ expression; 50 µM hormone, plate columns 1-6 (WT), mean of plate rows 5-8 (rpoH)): 152 Miller units
- Miller units (rpoH-lacZ expression; 50 µM hormone, plate columns 1-6 (WT), plate rows 5-8 (rpoH), single well): 140 Miller units and 146 Miller units and 175 Miller units
- Miller units (rpoH-lacZ expression; 50 µM hormone, plate columns 7-12 (second strain not given), plate rows 5-8 (rpoH), single well): 166 Miller units and 158 Miller units and 156 Miller units
- Miller units, Mean (rpoH-lacZ expression; 50 µM hormone, plate columns 7-12 (second strain), mean of plate rows 5-8 (rpoH)): 162 Miller units
- Miller units, single well (rpoH-lacZ expression; 50 µM hormone, plate columns 7-12 (second strain, not WT)): 166 Miller units and 158 Miller units and 156 Miller units
- Miller units, Mean (rpoH-lacZ expression; 50 µM hormone, plate columns 7-12 (second strain, not WT), mean of 4 wells): 162 Miller units
- Plate-6 (Testosterone) Miller units, Mean (rpoH-lacZ expression; 50 µM, plate column 6, mean of plate rows 5-8, right (rpoH) half of sheet): 68 Miller units
- Plate-6 (Testosterone) Miller units (rpoH-lacZ expression; 50 µM, plate column 6, plate rows 5-8, single wells, right (rpoH) half of sheet): 76 Miller units and 71 Miller units and 62 Miller units and 63 Miller units
- Plate-6 (Testosterone) Miller units, Mean (rpoH-lacZ expression; 50 µM, plate column 12, mean of plate rows 5-8, right (rpoH) half of sheet): 57 Miller units
- Plate-6 (Testosterone) Miller units (rpoH-lacZ expression; 50 µM, single wells, right (rpoH) half of sheet): 65 Miller units and 49 Miller units and 56 Miller units and 58 Miller units
- induction of rpoH expression (rpoH-lacZ expression; complemented (MtrR+) strains, increasing hormone): could be induced
- induction of rpoH expression (rpoH-lacZ expression; loss of MtrR or MtrR-D171A strain): abrogated
- Miller units (rpoH-lacZ expression; [1]): 55 Miller units and 65 Miller units
- β-galactosidase activity (Miller units) (rpoH-lacZ expression; [1]): 55 Miller units and 57 Miller units and 80 Miller units
- Miller units (rpoH-lacZ expression; [2]): 63 Miller units
- β-galactosidase activity (Miller units) (rpoH-lacZ expression; [2]): 58 Miller units and 54 Miller units and 74 Miller units
- Miller units (rpoH-lacZ expression; [3]): 68 Miller units
- β-galactosidase activity (Miller units) (rpoH-lacZ expression; [3]): 64 Miller units and 60 Miller units and 67 Miller units
- Miller units (rpoH-lacZ expression; [4]): 56 Miller units
- β-galactosidase activity (Miller units) (rpoH-lacZ expression; [4]): 65 Miller units and 49 Miller units and 58 Miller units
- β-galactosidase activity (Miller units) (rpoH-lacZ expression; rpoH-lacZ, ΔmtrR + mtrR WT in trans, 6.25 µM hormone, single replicate): 39 Miller units and 46 Miller units and 47 Miller units
- β-galactosidase activity (Miller units) (rpoH-lacZ expression; rpoH-lacZ, ΔmtrR + mtrR WT in trans, 12.5 µM hormone, single replicate): 51 Miller units and 50 Miller units and 56 Miller units and 52 Miller units
- Miller units (rpoH-lacZ expression; [5]): 55 Miller units
- β-galactosidase activity (Miller units) (rpoH-lacZ expression; [5]): 68 Miller units and 55 Miller units and 57 Miller units and 70 Miller units
- β-galactosidase activity (Miller units) (rpoH-lacZ expression; rpoH-lacZ, ΔmtrR + mtrR WT in trans, 50 µM hormone, single replicate): 76 Miller units and 71 Miller units and 62 Miller units and 63 Miller units
- β-galactosidase activity (Miller units) (rpoH-lacZ expression; rpoH-lacZ, ΔmtrR strain, 6.25 µM hormone, single replicate): 119 Miller units and 89 Miller units and 76 Miller units
- β-galactosidase activity (Miller units) (rpoH-lacZ expression; rpoH-lacZ, ΔmtrR strain, 12.5 µM hormone, single replicate): 126 Miller units and 100 Miller units and 81 Miller units
- β-galactosidase activity (Miller units) (rpoH-lacZ expression; rpoH-lacZ, ΔmtrR strain, 25 µM hormone, single replicate): 155 Miller units and 93 Miller units and 79 Miller units
- β-galactosidase activity (Miller units) (rpoH-lacZ expression; rpoH-lacZ, ΔmtrR strain, 50 µM hormone, single replicate): 151 Miller units and 101 Miller units and 93 Miller units
- Miller units (rpoH-lacZ expression; rpoH-lacZ, ΔmtrR, 6.25 µM hormone, single replicate): 100 Miller units
- Miller units (rpoH-lacZ expression; rpoH-lacZ, ΔmtrR, 12.5 µM hormone, single replicate): 101 Miller units
- Miller units (rpoH-lacZ expression; rpoH-lacZ, ΔmtrR, 25 µM hormone, single replicate): 122 Miller units
- Miller units (rpoH-lacZ expression; rpoH-lacZ, ΔmtrR, 50 µM hormone, single replicate): 132 Miller units
- β-galactosidase activity, rpoH-lacZ, Mean (rpoH-lacZ expression; strain WT (FA19/pLES94-rpoH), hormone 6.25 µM): 69 Miller units
- β-galactosidase activity, rpoH-lacZ, Mean (rpoH-lacZ expression; strain WT (FA19/pLES94-rpoH), hormone 12.5 µM): 81 Miller units
- β-galactosidase activity, rpoH-lacZ, Mean (rpoH-lacZ expression; strain WT (FA19/pLES94-rpoH), hormone 25 µM): 98 Miller units
- β-galactosidase activity, rpoH-lacZ, Mean (rpoH-lacZ expression; strain WT (FA19/pLES94-rpoH), hormone 50 µM): 117 Miller units
- activation of rpoH (rpoH-lacZ expression; strain producing MtrR R176E): significantly less activation
- β-galactosidase activity, rpoH-lacZ, Mean (rpoH-lacZ expression; strain ΔmtrR (FA19 ∆mtrR/pLES94-rpoH), hormone 6.25 µM): 96 Miller units
- β-galactosidase activity, rpoH-lacZ, Mean (rpoH-lacZ expression; strain ΔmtrR (FA19 ∆mtrR/pLES94-rpoH), hormone 12.5 µM): 102 Miller units
- β-galactosidase activity, rpoH-lacZ, Mean (rpoH-lacZ expression; strain ΔmtrR (FA19 ∆mtrR/pLES94-rpoH), hormone 25 µM): 112 Miller units
- β-galactosidase activity, rpoH-lacZ, Mean (rpoH-lacZ expression; strain ΔmtrR (FA19 ∆mtrR/pLES94-rpoH), hormone 50 µM): 119 Miller units
- β-galactosidase activity, rpoH-lacZ, Mean (rpoH-lacZ expression; strain ΔmtrR + mtrR D171A (pGCC3-mtrR D171A), hormone 6.25 µM): 64 Miller units
- β-galactosidase activity, rpoH-lacZ, Mean (rpoH-lacZ expression; strain ΔmtrR + mtrR D171A (pGCC3-mtrR D171A), hormone 12.5 µM): 62 Miller units
- β-galactosidase activity, rpoH-lacZ, Mean (rpoH-lacZ expression; strain ΔmtrR + mtrR D171A (pGCC3-mtrR D171A), hormone 25 µM): 65 Miller units
- β-galactosidase activity, rpoH-lacZ, Mean (rpoH-lacZ expression; strain ΔmtrR + mtrR D171A (pGCC3-mtrR D171A), hormone 50 µM): 57 Miller units
- β-galactosidase activity, rpoH-lacZ, Mean (rpoH-lacZ expression; strain ΔmtrR + mtrR WT (pGCC3-mtrR), hormone 6.25 µM): 43 Miller units
- β-galactosidase activity, rpoH-lacZ, Mean (rpoH-lacZ expression; strain ΔmtrR + mtrR WT (pGCC3-mtrR), hormone 12.5 µM): 52 Miller units
- β-galactosidase activity, rpoH-lacZ, Mean (rpoH-lacZ expression; strain ΔmtrR + mtrR WT (pGCC3-mtrR), hormone 25 µM): 63 Miller units
- β-galactosidase activity, rpoH-lacZ, Mean (rpoH-lacZ expression; strain ΔmtrR + mtrR WT (pGCC3-mtrR), hormone 50 µM): 68 Miller units
- Plate-6 (Testosterone) Miller units, Mean (rpoH-lacZ expression; testosterone 6.25 µM, plate column 3, lower four plate rows): 43 Miller units
- Plate-6 (Testosterone) Miller units, Mean (rpoH-lacZ expression; testosterone 6.25 µM, plate column 9 (second strain set, columns 7-12), lower four plate rows): 64 Miller units
- Plate-6 (Testosterone) Miller units, Mean (rpoH-lacZ expression; testosterone 12.5 µM, plate column 4, lower four plate rows): 52 Miller units
- Plate-6 (Testosterone) Miller units, Mean (rpoH-lacZ expression; testosterone 12.5 µM, plate column 10 (second strain set, columns 7-12), lower four plate rows): 62 Miller units
- Plate-6 (Testosterone) Miller units, Mean (rpoH-lacZ expression; testosterone 25 µM, plate column 5, lower four plate rows): 63 Miller units
- Plate-6 (Testosterone) Miller units, Mean (rpoH-lacZ expression; testosterone 25 µM, plate column 11 (second strain set, columns 7-12), lower four plate rows): 65 Miller units
- Plate-6 (Testosterone) Miller units, Mean (rpoH-lacZ expression; testosterone 50 µM, plate column 6, lower four plate rows): 68 Miller units
- Plate-6 (Testosterone) Miller units, Mean (rpoH-lacZ expression; testosterone 50 µM, plate column 12 (second strain set, columns 7-12), lower four plate rows): 57 Miller units
- growth inhibition of N. gonorrhoeae (N. gonorrhoeae): arrest N. gonorrhoeae growth
